In patent US9862711B2, “Pyrazine derivatives as phosphatidylinositol 3-kinase inhibitors” (NOVARTIS AG, priority 2014, dated 2018):

How the values were obtained:
PI 3-kinase beta = PI 3-kinase beta (Homo sapiens (Human), UniProt P42338); test: Kinase Glo Luminescent Kinase Assay (Assay B); assay type: biochemical; settings: 1 μM ATP, read-out: Assay B PI3Kβ IC50
Text: (§1) Kinase Glo Luminescent Kinase Assay (Kglo) for PI 3-Kinase Alpha (A), Pb 3-Kinase Beta (B), Vps34 (C), PI 4-Kinase Beta (D)
(§2) The luminescence-based ATP detection reagent KinaseGlo was obtained from Promega, (Cat. No. V6714, Lot No. 236161) through Catalys, Wallisellen, Switzerland. L-alpha-phosphatidylinositol (PI, liver, bovine) was obtained from Avanti Polar Lipid (Cat. No. 840042C, Lot#LPI-274), Phosphatidylinositol-4,5-bisphosphate (PIP(4,5)2) was also obtained from Avanti Polar Lipid (Cat. No. 840046X). L-α-Phosphatidylserine (PS) was obtained from Avanti Polar Lipid (Cat. No. 840032C), n-Octylglucoside from Avanti Polar Lipid (Cat. No. 10634425001). Luminescence is a well established readout to determine ATP concentrations and can thus be used to follow the activity of many kinases regardless of their substrate. The Kinase Glo Luminescent Kinase Assay (Promega, Madison/WI, USA) is a homogeneous HTS method of measuring kinase activity by quantifying the amount of ATP remaining in solution following a kinase reaction.
(§3) 50 nL of compound dilutions were dispensed onto black 384-well low volume Non Binding Styrene (NBS) plates (Costar Cat. No. NBS#3676). L-α-phosphatidylinositol (PI), provided as 10 mg/ml solution in methanol, was transferred into a glass tube and dried under a nitrogen beam. It was then resuspended in 3% OctylGlucoside (1-O-n-octyl-beta-D-glucopyranoside) by vortexing and stored at 4° C. 5 μL of a mix of PI/OctylGlucoside with the PI 3-kinase alpha and PI 3-kinase beta subtypes, or Vps34 or PI 4-kinase beta were added. Kinase reactions were started by the addition of 5 μl of an ATP-mix containing in a final volume 10 μL 10 mM TRIS-HCl pH 7.5, 3 mM MgCl2, 50 mM NaCl, 0.05% CHAPS, 1 mM DTT and 1 μM ATP at room temperature. Reactions were stopped with 10 μl of KinaseGlo and plates were read 10 mins later in a Synergy2 reader using an integration time of 0.1 seconds per well. 2.5 μM of NVP-BGT226 (1-(3-(trifluoromethyl)-4-(piperazin-1-yl)phenyl)-8-(6-methoxypyridin-3-yl)-3-methyl-1H-imidazo[4,5-c]quinolin-2(3H)-one) was added to the assay plates to generate the 100% inhibition of the kinase reaction, and the 0% inhibition was given by the solvent vehicle (90% DMSO in water). (1-(3-(trifluoromethyl)-4-(piperazin-1-yl)phenyl)-8-(6-methoxypyridin-3-yl)-3-methyl-1H-imidazo[4,5-c]quinolin-2(3H)-one) was used as a reference compound and included in all assay plates in the form of 16 dilution points in duplicate.
(§4) IC50 values of the percentage inhibition of each compound at 8 concentrations (10, 3.0, 1.0, 0.3, 0.1, 0.030, 0.010 and 0.003 μM) n=2 were derived by fitting a sigmoidal dose-response curve to a plot of assay readout over inhibitor concentration as described. All fits were performed with the program XLfit4 (ID Business Solutions, Guildford, UK).

Vps34 = Vps34 (Homo sapiens (Human), UniProt Q8NEB9); test: Kinase Glo Luminescent Kinase Assay (Assay C); assay type: biochemical; settings: 1 μM ATP
Chain of Vps34 (Q8NEB9 whole entry, species assumed): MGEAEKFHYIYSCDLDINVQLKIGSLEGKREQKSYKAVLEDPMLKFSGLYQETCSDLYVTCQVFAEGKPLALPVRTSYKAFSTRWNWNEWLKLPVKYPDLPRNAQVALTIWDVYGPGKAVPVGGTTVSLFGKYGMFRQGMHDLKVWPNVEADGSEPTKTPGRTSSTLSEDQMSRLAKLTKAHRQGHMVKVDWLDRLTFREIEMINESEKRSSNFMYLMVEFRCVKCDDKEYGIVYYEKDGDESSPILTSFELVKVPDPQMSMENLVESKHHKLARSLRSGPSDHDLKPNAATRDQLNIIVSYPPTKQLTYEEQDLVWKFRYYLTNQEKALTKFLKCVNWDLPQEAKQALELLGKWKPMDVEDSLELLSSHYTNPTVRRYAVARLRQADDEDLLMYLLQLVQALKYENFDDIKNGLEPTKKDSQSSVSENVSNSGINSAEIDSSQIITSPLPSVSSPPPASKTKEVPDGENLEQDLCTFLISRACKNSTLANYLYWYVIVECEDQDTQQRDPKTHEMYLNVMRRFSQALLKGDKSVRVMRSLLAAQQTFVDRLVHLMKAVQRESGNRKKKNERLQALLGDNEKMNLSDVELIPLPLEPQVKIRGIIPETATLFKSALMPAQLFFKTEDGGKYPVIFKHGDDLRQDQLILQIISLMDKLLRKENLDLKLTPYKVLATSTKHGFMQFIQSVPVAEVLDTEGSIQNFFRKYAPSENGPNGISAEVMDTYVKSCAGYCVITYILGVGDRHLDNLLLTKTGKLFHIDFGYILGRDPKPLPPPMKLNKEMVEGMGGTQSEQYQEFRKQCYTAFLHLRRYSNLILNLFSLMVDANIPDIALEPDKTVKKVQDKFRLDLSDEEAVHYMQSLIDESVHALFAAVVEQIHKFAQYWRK
Text: as §1, §2, §3, §4

Chain of PI 3-kinase beta (P42338 2-1070): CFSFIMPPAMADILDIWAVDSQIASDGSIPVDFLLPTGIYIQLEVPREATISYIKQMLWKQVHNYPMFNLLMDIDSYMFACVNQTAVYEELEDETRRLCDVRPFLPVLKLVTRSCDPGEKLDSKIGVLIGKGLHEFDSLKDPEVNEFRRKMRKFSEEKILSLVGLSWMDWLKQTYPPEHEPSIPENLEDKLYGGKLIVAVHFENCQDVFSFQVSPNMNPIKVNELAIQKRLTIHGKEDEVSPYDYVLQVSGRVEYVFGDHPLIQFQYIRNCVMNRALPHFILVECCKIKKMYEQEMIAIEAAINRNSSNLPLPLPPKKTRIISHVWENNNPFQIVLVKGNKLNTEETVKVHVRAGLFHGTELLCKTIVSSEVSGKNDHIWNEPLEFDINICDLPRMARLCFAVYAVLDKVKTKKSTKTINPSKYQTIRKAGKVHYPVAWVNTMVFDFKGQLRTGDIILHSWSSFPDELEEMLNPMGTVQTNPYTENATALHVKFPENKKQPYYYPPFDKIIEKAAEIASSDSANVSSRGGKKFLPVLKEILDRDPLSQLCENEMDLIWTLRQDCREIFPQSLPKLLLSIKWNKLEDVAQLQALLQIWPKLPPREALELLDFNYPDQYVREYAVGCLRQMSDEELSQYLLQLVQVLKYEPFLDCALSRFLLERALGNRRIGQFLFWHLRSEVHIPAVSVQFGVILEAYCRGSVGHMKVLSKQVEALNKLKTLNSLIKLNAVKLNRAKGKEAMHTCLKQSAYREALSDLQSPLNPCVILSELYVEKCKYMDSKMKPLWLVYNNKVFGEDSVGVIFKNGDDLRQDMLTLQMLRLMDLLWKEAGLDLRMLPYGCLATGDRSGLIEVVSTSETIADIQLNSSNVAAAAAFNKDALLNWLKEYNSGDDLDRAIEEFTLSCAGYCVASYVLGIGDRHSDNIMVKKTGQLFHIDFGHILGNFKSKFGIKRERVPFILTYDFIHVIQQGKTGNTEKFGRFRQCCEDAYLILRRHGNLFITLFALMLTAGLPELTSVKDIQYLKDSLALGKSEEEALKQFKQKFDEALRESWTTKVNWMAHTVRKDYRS

| IC50 (PI 3-kinase beta) [µM] | IC50 (Vps34) [µM] | SMILES |
| --- | --- | --- |
| 1.45 | 5.3 | Cc1ccc(S(=O)(=O)NCCC(C)(C)O)cc1-c1cncc(-c2cn(C)nc2C)n1 [Example 3, 3-[6-(1,3-Dimethyl-1H-pyrazol-4-yl)-pyrazin-2-yl]-N-(3-hydroxy-3-methyl-butyl)-4-methyl-benzenesulfonamide] |
| 6.16 | 3.07 | Cc1ncc(-c2cncc(-c3cc(S(=O)(=O)NCCCO)ccc3C)n2)s1 [Example 1, N-(3-Hydroxy-propyl)-4-methyl-3-[6-(2-methyl-thiazol-5-yl)-pyrazin-2-yl]-benzenesulfonamide] |
| 3.93 | 3.08 | Cc1ccc(S(=O)(=O)N[C@H]2CC[C@H](O)CC2)cc1-c1cncc(-c2cccnc2)n1 [Example 11, Trans N-(4-Hydroxy-cyclohexyl)-4-methyl-3-(6-pyridin-3-yl-pyrazin-2-yl)-benzenesulfonamide] |
| 0.68 | 4.3 | Cc1ccc(S(=O)(=O)NCC2(C)COC2)cc1-c1cncc(-c2cn(C)nc2C)n1 [Example 4, Trans 3-[6-(1,3-Dimethyl-1H-pyrazol-4-yl)-pyrazin-2-yl]-4-methyl-N-(3-methyl-oxetan-3-ylmethyl)-benzenesulfonamide] |
| > 9.1 | > 9.1 | Cc1ccc(S(=O)(=O)NCCC(C)(C)O)cc1-c1cncc(-c2cnn(CCN3CCOCC3)c2)n1 [Example 9, N-(3-Hydroxy-3-methyl-butyl)-4-methyl-3-{6-[1-(2-morpholin-4-yl-ethyl)-1H-pyrazol-4-yl]-pyrazin-2-yl}-benzenesulfonamide] |
| 0.71 | 3.45 | Cc1ccc(S(=O)(=O)NCC(C)(C)O)cc1-c1cncc(-c2cn(C)nc2C)n1 [Example 2, 3-[6-(1,3-Dimethyl-1H-pyrazol-4-yl)-pyrazin-2-yl]-N-(2-hydroxy-2-methyl-propyl)-4-methyl-benzenesulfonamide] |
| 8.5 | > 10 | Cc1ccc(S(=O)(=O)NCCC(C)(C)O)cc1-c1cncc(-c2cn(CCN3CCOCC3)nc2C)n1 [Example 10, N-(3-Hydroxy-3-methyl-butyl)-4-methyl-3-{6-[3-methyl-1-(2-morpholin-4-yl-ethyl)-1H-pyrazol-4-yl]-pyrazin-2-yl}-benzenesulfonamide] |
| 0.68 | 4.4 | Cc1ccc(S(=O)(=O)NCC(C)(C)CO)cc1-c1cncc(-c2cn(C)nc2C)n1 [Example 8, 3-[6-(1,3-Dimethyl-1H-pyrazol-4-yl)-pyrazin-2-yl]-N-(3-hydroxy-2,2-dimethyl-propyl)-4-methyl-benzenesulfonamide] |
| 1.12 | 1.81 | Cc1ncc(-c2cncc(-c3cc(S(=O)(=O)N[C@H]4CC[C@H](O)CC4)ccc3C)n2)s1 [Example 5, Trans N-(4-Hydroxycyclohexyl)-4-methyl-3-(6-(2-methylthiazol-5-yl)pyrazin-2-yl)benzenesulfonamide] |
